From publication PMC3293837, “Biophysical Property and Broad Anti-HIV Activity of Albuvirtide, a 3-Maleimimidopropionic Acid-Modified Peptide Fusion Inhibitor” (PLoS ONE, 2012)

Legend:
[1] = tested on: HIV-1NL4-3 L33S infectious molecular clone; type: cell-based
Protocol: The mutant viruses were generated by transient transfection of NL4-3 plasmids into 293T cells. The virus stocks were harvested 48 hours post-transfection and quantified for TCID50. […] In brief, 100 TCID50 viruses were used to infect TZM-bl cells in the presence or absence of serially diluted peptides. Two days post-infection, the cells were harvested and lysed in reporter lysis buffer, and the luciferase activity was measured. The IC50 was calculated as described above using GraphPad Prism software (GraphPad Prism software Inc., San Diego, CA).

[2] = tested on: T20-resistant HIV-1NL4-3 variants; details: HIV-1NL4-3 with single or double gp41 mutations
Protocol: Luciferase activity was measured using luciferase assay regents (Promega, Medison, WI) and a Luminescence Counter (Promega) according to the manufacture's instructions.

[3] = tested on: HIV-1NL4-3 D36G pseudovirus; type: cell-based
Protocol: (§2) HIV-1 pseudoviruses were generated as described previously [32], [55]–[56]. Briefly, 293T cells (5×10^6 cells in 15 ml of growth medium in a T-75 culture flask) were cotransfected with 10 µg of an Env-expressing plasmid and 20 µg of a backbone plasmid pSG3deltaEnv that encodes Env-defective, luciferase-expressing HIV-1 genome using Lipofectamine 2000 reagent (Invitrogen). Pseudovirus-containing culture supernatants were harvested 48 hours after transfection and filtered by 0.45-mm pore size, and stored at −80°C in 1-ml aliquots until use. The 50% tissue culture infectious dose (TCID50) of a single thawed aliquot of each pseudovirus batch was determined in TZM-bl cells. […] Briefly, the peptides were prepared with ten series dilutions in a 3-fold stepwise manner and mixed with 100 TCID50 viruses and incubated 1 hour at room temperature. The mixture was added to TZM-bl cells (10^4/well) and incubation at 37°C for 48 hours. Luciferase activity was measured using luciferase assay regents (Promega, Medison, WI) and a Luminescence Counter (Promega) according to the manufacture's instructions.

[4] = tested on: HIV-1; details: cited from earlier work
[5] = tested on: HIV-1HXB2 Env-mediated cell-cell membrane fusion (TZM-bl / HL2/3 cells); details: read-out: IC50, Env-mediated cell-cell fusion; TZM-bl with HL2/3 cells, 6 h, 37°C, luciferase; three independent experiments
Protocol: Cell fusion was monitored using a reporter gene assay based on activation of HIV LTR-driven luciferase cassette in TZM-bl (Target) cells by HIV-1 tat from the HL2/3 (Effector) cells. Briefly, the TZM-bl cells were plated in 96-well clusters (2×10^4 per well) and incubated at 37°C overnight. […] Luciferase activity was measured using luciferase assay regents (Promega, Medison, WI) and a Luminescence Counter (Promega) according to the manufacture's instructions. Background luminescence in TZM-bl cells was determined without addition of HL2/3 cells.

[6] = tested on: SHX335.24 pseudovirus (CRF01_AE); type: cell-based, HIV-1; details: SHX335.24, CRF01_AE, R5; TZM-bl, 48 h; triplicate, mean ± SD of at least three independent experiments
Excerpt: (§1) A panel of plasmids encoding HIV-1 Envs were obtained through the AIDS Research and Reference Reagent Program (ARRRP), Division of AIDS, NIAID, NIH, including subtype A Env clones pSVIII-92RW020.5 and 92UG037.8 from Dr. B.H. Hahn; subtype B Env clones SC422661.8, TRO.11 and AC10.0.29 from Drs. D. Montefiori, F. Gao and M. Li, pRHPA4259.7 and pREJO4541.67 from Drs. B.H. Hahn and J.F. Salazar-Gonzalez, and pCAAN5342.A2 from Drs. B.H. Hahn and D.L. Kothe; subtype C Env clones Du172.17 and Du422.1 from Drs. D. Montefiori, F. Gao, S. Abdool Karim and G. Ramjee, CAP45.2.00.G3 from Drs. L. Morris, K. Mlisana and D. Montefiori, ZM197M.PB7 from Drs. B.H. Hahn, Y. Li and J.F. Salazar-Gonzalez, ZM109F.PB4 from Drs. E. Hunter and C. Derdeyn. Six CRF07_BC Env clones (CH064.20, CH070.1, CH091.9, CH110.2, CH119.10 and CH120.6) were generous gifts by Dr. Y. Shao in the Chinese Center for Disease Control and Prevention, Beijing, China. A panel of Env clones derived from subtype B′ (B01, B02, B04, and 43-22), CRF01_AE (SHX335.24, YN192.31, AE01, AE03, GX2010.36, GX11.13, GX2010.36H, BJ5.11), and CRF07_BC (BC02, BC03, BC05, BC07, BC14, SC19-15, BJ22-5, YN148R-9, XJ50-6, HB5-3) were kindly provided by Dr. Y. Wang from the National Institute for the Control of Pharmaceutical and Biological Products, Beijing, China.

[7] = tested on: BJ22-5 pseudovirus (CRF07_BC); type: cell-based, HIV-1; details: BJ22-5, CRF07_BC, R5; TZM-bl, 48 h; triplicate, mean ± SD of at least three independent experiments
Excerpt: as §1

[8] = tested on: Du172.17 pseudovirus (subtype C); type: cell-based, HIV-1; details: Du172.17, subtype C, R5; TZM-bl, 48 h; triplicate, mean ± SD of three independent experiments
Excerpt: as §1

[9] = tested on: RHPA4259 pseudovirus (subtype B); type: cell-based, HIV-1; details: R5, TZM-bl, 48 h, triplicate, mean ± SD of three independent experiments
Excerpt: as §1

[10] = tested on: B01 pseudovirus (subtype B′); type: cell-based, HIV-1; details: R5, TZM-bl, 48 h, triplicate, mean ± SD of at least three independent experiments
Excerpt: as §1

[11] = tested on: YN192.31 pseudovirus (CRF01_AE); type: cell-based, HIV-1; details: YN192.31, CRF01_AE, R5; TZM-bl, 48 h; triplicate, mean ± SD of at least three independent experiments
Excerpt: as §1

[12] = tested on: 43-22 pseudovirus (subtype B′); type: cell-based, HIV-1; details: 43-22, B′, R5; TZM-bl, 48 h; triplicate, mean ± SD of at least three independent experiments
Excerpt: as §1

[13] = tested on: 92RW020 pseudovirus (subtype A); type: cell-based, HIV-1; details: 92RW020, subtype A, R5; TZM-bl, 48 h; triplicate, mean ± SD of three independent experiments
Excerpt: as §1

[14] = tested on: B04 pseudovirus (subtype B′); type: cell-based, HIV-1; details: R5, TZM-bl, 48 h, triplicate, mean ± SD of at least three independent experiments
Excerpt: as §1

[15] = tested on: Du422.1 pseudovirus (subtype C); type: cell-based, HIV-1; details: Du422.1, subtype C, R5; TZM-bl, 48 h; triplicate, mean ± SD of three independent experiments
Excerpt: as §1

[16] = tested on: CH120 pseudovirus (CRF07_BC); type: cell-based, HIV-1; details: R5, TZM-bl, 48 h, triplicate, mean ± SD of at least three independent experiments
Excerpt: as §1

[17] = tested on: HIV-1NL4-3 Q40H pseudovirus; type: cell-based; details: HIV-1NL4-3 Q40H; TZM-bl, 48 h; mean ± SD of three independent experiments
Protocol: The mutations were created using double-stranded DNA templates and selection of mutants with DpnI. For each mutation, the two primers contained the desired mutation and occupied the same starting and ending positions on opposite strands of the plasmid DNA. DNA synthesis was carried out by PCR in a 50-µL reaction volume using 1 µL of denatured plasmid template (1 ng/µL), 50 pmol of upper and lower primers and 5 U of high-fidelity thermostable polymerase PrimeStar (Takara, Dalian, China). PCR amplification was carried out for one cycle of denaturation at 98°C for 5 min, then 18 cycles of 98°C for 15 s and 68°C for 15 min, followed a final extension at 72°C for 10 min. The amplicons were treated with the restriction enzyme DpnI for 1 h at 37°C. DpnI-resistant molecules, which were rich in the desired mutants, were recovered by transforming Escherichia coli strain-DH5α to antibiotic resistance. The successful mutations were confirmed by sequencing.
as §2

[18] = tested on: HIV-1NL4-3 I37T pseudovirus; type: cell-based; details: HIV-1NL4-3 I37T; TZM-bl, 48 h; mean ± SD of three independent experiments
Protocol: as §2

Substance: enfuvirtide
- IC50 ([1]; L33S infectious molecular clone of HIV-1NL4-3, TZM-bl, 100 TCID50, two days, mean ± SD of three independent experiments): > 750 nM
- inhibitory activity on L33S virus (in words) ([1]; infectious molecular clone, T20 up to 750 nM): no any inhibitory activity at a concentration up to 750 nM
- activity on T20-resistant variants (in words) [2]: high level resistance
- increase in sensitivity of D36G mutant ([3]; D36G relative to WT HIV-1NL4-3): 8.3 fold
- IC50 ([3]; HIV-1NL4-3 D36G, TZM-bl, 48 h, mean ± SD of three independent experiments): 7.5 ± 1.3 nM
- inhibition of viral entry (in words) [4]: low nanomolar concentration
- IC50 [5]: 56.2 nM
- IC50 [6]: 51 ± 7.35 nM
- IC50 [7]: 25.8 ± 4.17 nM
- IC50 [8]: 11.6 ± 5.29 nM
- IC50 [9]: 281.9 ± 0.57 nM
- IC50 [10]: 49.5 ± 2.41 nM
- IC50 [11]: 68.5 ± 3.25 nM
- IC50 [12]: 12.1 ± 3.24 nM
- IC50 [13]: 25.4 ± 9.81 nM
- IC50 [14]: 7.8 ± 0.43 nM
- IC50 [15]: 28.4 ± 5.14 nM
- IC50 [16]: 50.4 ± 4.22 nM
- IC50 [17]: 731 ± 35.2 nM
- IC50 [18]: 300 ± 55.1 nM
